Measured values from US8501911B2, “Methods of reducing inflammation and mucus hypersecretion” (Biomarck Pharmaceuticals, Ltd, priority 1999, dated 2013).
Entries after “also recorded” stand apart in the source; their conditions may differ. Residues, ends and D or L forms follow the SMILES beside them. *: point of attachment. Myristoyl = CCCCCCCCCCCCCC(=O)*

Tests used:
[1] = tested on: LPS-primed human neutrophils; test: MPO secretion from LPS-primed human neutrophils; type: cell-based
Description: Results-I-11 and Results-I-12 show MPO secretion from LPS-primed human neutrophils as a model for humans, and Results-I-13, Results-I-14, and Results-I-15 show MPO secretion from LPS-primed canine neutrophils as a model for canines. In all of these experiments, isolated neutrophils were stimulated with LPS at a concentration of 1×10^−6 M for 10 minutes at 37° C. prior to adding the stimuli. The LPS primes the cells so they can respond to a secretagogue.
Thus, in one comparative experiment, when absorbance was monitored at 450 nm while observing MPO secretion from LPS-primed human neutrophils, Results-I-11 were obtained as follows.
In another comparative experiment, when absorbance was monitored at 450 nm while observing MPO secretion from LPS-primed human neutrophils, Results-I-12 were obtained as follows.
MPO Colorimetric Enzyme Assay—Samples were assayed for MPO activity in 96 well round bottom microtiter plates using a sandwich ELISA kit (R & D Systems, Minneapolis, Minn.). Briefly, 20 microliters of sample is mixed with 180 microliters of substrate mixture containing 33 mM potassium phosphate, pH 6.0, 0.56% Triton X-100, 0.11 mM hydrogen peroxide, and 0.36 mM O-Diannisidine Dihydrochloride in an individual microtiter well. […] After mixing, the assay mixture was incubated at room temperature for 5 minutes, and MPO enzyme activity determined spectrophotometrically at 550 nanometers. […]

MARCKS = MARCKS phosphorylation in NHBE cells (radiolabeled immunoprecipitation assay); type: cell-based, human
Description: NHBE cells were labeled with [^32 P]orthophosphate and then exposed to the reagents: (a) Rp-8-Br-PET-cGMP (100 μM); (b) okadaic acid (500 nM); (c) 8-Br-cGMP (1 μM); and (d) PMA (100 nM). MARCKS phosphorylation in response to the treatments was evaluated by immunoprecipitation assay.
To reveal molecular events by which MARCKS links kinase activation to mucin secretion, phosphorylation of MARCKS in response to PKC/PKG activation was investigated in depth, and results are presented as Results-I-4A. […] Once phosphorylated, MARCKS was translocated from the plasma membrane to the cytoplasm. More specifically, the activation of PKC results in MARCKS phosphorylation in NHBE cells. Cells were labeled with [^32 P]orthophosphate for 2 h and then exposed to the stimulatory and/or inhibitory reagents (see below). MARCKS phosphorylation in response to the treatments was evaluated by immunoprecipitation with the following specifics, designated Results-I-4A:
[^32P]phosphate, cells were preincubated for 2 h in phosphate-free Dulbecco's modified Eagle's medium containing 0.2% bovine serum albumin and then labeled with 0.1 mCi/ml [^32 P]orthophosphate (9000 Ci/mmol, PerkinElmer Life Sciences) for 2 h. For labeling with [^3H]myristic acid or ^3H-amino acids, cells were incubated overnight in medium containing 50 μCi/ml [^3H]myristic acid (49 Ci/mmol, PerkinElmer Life Sciences) or 0.2 mCi/ml [^3H]leucine (159 Ci/mmol, PerkinElmer Life Sciences) plus 0.4 mCi/ml [^3H]proline (100 Ci/mmol, PerkinElmer Life Sciences). Following labeling, cells were exposed to stimulatory reagents for 5 min. When an inhibitor was used, cells were preincubated with the inhibitor for 15 min prior to stimulation. At the end of the treatments, cells were lysed in a buffer containing 50 mM Tris-HCl (pH 7.5), 150 mM NaCl, 1 mM EDTA, 10% glycerol, 1% Nonidet P-40, 1 mM phenylmethylsulfonyl fluoride, 1 mM benzamidine, 10 μg/ml pepstatin A, and 10 μg/ml leupeptin. Trichloroacetic acid precipitation and scintillation counting may determine the radiolabeling efficiency in each culture. Immunoprecipitation of MARCKS protein was carried out according to the method of Spizz and Blackshear using cell lysates containing equal counts/min. Spizz et al., J. Biol. Chem. 271, 553-562 (1996). Precipitated proteins were resolved by 8% SDS-polyacrylamide gel electrophoresis and visualized by autoradiography. Anti-human MARCKS antibody (2F12) and nonimmune control antibody (6F6) were used in this assay.
Phosphorylation of MARCKS by PMA was attenuated by Calphostin C (500 nM). NHBE cells also contained substantial amounts of cGMP-dependent protein kinase type 1α (PKG-1α) activity, which was localized to the cytosolic fraction. […] In addition, the phosphorylation of MARCKS induced by PMA was reversed by incubation with 8-Br-cGMP (10 μM).

NHBE cells = test: Cytotoxicity / metabolic activity of NHBE cells (LDH release, deoxyglucose uptake); type: cell-based, human; settings: peptide 1-100 μM
Description: In Results-I-2B-1 and Results-I-2B-2, the MANS peptide blocked mucin hypersecretion induced by PMA+8-Br-cGMP or UTP in a concentration-dependent manner. NHBE cells were preincubated with the indicated peptide for 15 min and then exposed to PMA (100 nM)+8-Br-cGMP (1 μM) for 15 min or UTP (100 μM) for 2 h. Mucin secretion was measured by ELISA.
Cytotoxicity Assay—All reagents used in treating NHBE cells were examined for cytotoxicity by measuring the total release of lactate dehydrogenase from the cells. The assay was carried out using the Promega Cytotox 96 Kit according to the manufacturer's instructions. All experiments were performed with reagents at non-cytotoxic concentrations.

human neutrophils = test: MPO secretion from isolated human neutrophils stimulated with PMA+8-Br-cGMP; type: cell-based
Description: MPO Colorimetric Enzyme Assay—Samples were assayed for MPO activity in 96 well round bottom microtiter plates using a sandwich ELISA kit (R & D Systems, Minneapolis, Minn.). Briefly, 20 microliters of sample is mixed with 180 microliters of substrate mixture containing 33 mM potassium phosphate, pH 6.0, […], 0.11 mM hydrogen peroxide, and 0.36 mM O-Diannisidine Dihydrochloride in an individual microtiter well. The final concentrations in the assay mixture are: 30 mM potassium phosphate, pH 6.0, 0.05% Triton X-100, 0.1 mM hydrogen peroxide, and 0.32 mM O-Diannisidine Dihydrochloride. […] Samples were assayed in duplicate.

[2] = peptide 1 μM + 100 nM PMA+10 μM 8-Br-cGMP, unstimulated control 0.076
[3] = peptide 10 μM + 100 nM PMA+10 μM 8-Br-cGMP
[4] = peptide 100 μM + 100 nM PMA+10 μM 8-Br-cGMP
[5] = inhibitor 500 nM + 100 nM PMA + 1 μM 8-Br-cGMP

## Nc1nc2c(nc(Br)n2[C@@H]2O[C@@H]3COP(=O)(O)O[C@H]3[C@H]2O)c(=O)[nH]1 [8-Br-cGMP]
[1]; cGMP alone, concentration not given
  Absorbance reading at 450 nm (MPO secretion): 0.155
MARCKS; 8-Br-cGMP 10 μM (Example 6)
  Effect on PMA-induced phosphorylation of MARCKS: reversed
MARCKS; reagent 1 μM alone
  MARCKS phosphorylation (band in immunoprecipitation assay): faint band; also recorded: no band; also recorded: only a trace amount

## CCCCCCCCCCCCCC(=O)NCC(=O)N[C@@H](C)C(=O)N[C@@H](CCC(N)=O)C(=O)N[C@@H](Cc1ccccc1)C(=O)N[C@@H](CO)C(=O)N[C@@H](CCCCN)C(=O)N[C@H](C(=O)N[C@@H](C)C(=O)N[C@@H](C)C(=O)N[C@@H](CCCCN)C(=O)NCC(=O)N[C@@H](CCC(=O)O)C(=O)N[C@@H](C)C(=O)N[C@@H](C)C(=O)N[C@@H](C)C(=O)N[C@@H](CCC(=O)O)C(=O)N[C@@H](CCCNC(=N)N)C(=O)N1CCC[C@H]1C(=O)NCC(=O)N[C@@H](CCC(=O)O)C(=O)N[C@@H](C)C(=O)N[C@@H](C)C(=O)N[C@H](C(=O)N[C@@H](C)C(=O)O)C(C)C)[C@@H](C)O [MANS peptide] (Myristoyl-GAQFSKTAAKGEAAAERPGEAAVA-OH; C-terminus assumed)
NHBE cells
  Lactate dehydrogenase release: neither the MANS nor the RNS peptide affected
  [3H]deoxyglucose uptake: neither the MANS nor the RNS peptide affected
Human neutrophils; [2]
  Absorbance at 450 nm (MPO secretion): 0.102
Human neutrophils; [3]
  Absorbance at 450 nm (MPO secretion): 0.093
Human neutrophils; [4]
  Absorbance at 450 nm (MPO secretion): 0.068

## CCCCCCCCCCCCCC(=O)O[C@@H]1[C@@H](C)[C@@]2(O)[C@@H](C=C(CO)C[C@]3(O)C(=O)C(C)=C[C@@H]23)[C@@H]2C(C)(C)[C@]12OC(C)=O [PMA, phorbol 12-myristate 13-acetate]
[1]; 10 nM PMA, medium control 0.15
  Absorbance reading at 450 nm (MPO secretion): 0.19
MARCKS; PMA 100 nM
  Increase in MARCKS phosphorylation: 3-4 fold
MARCKS; reagent 100 nM alone
  MARCKS phosphorylation (band in immunoprecipitation assay): dark band; also recorded: very dark band; also recorded: showed a band; also recorded: strong band; also recorded: phosphorylated

## CCCCCCCCCCCCCC(=O)NCC(=O)N[C@H](C(=O)N[C@@H](C)C(=O)N1CCC[C@H]1C(=O)N[C@@H](C)C(=O)N[C@@H](C)C(=O)N[C@@H](CCC(=O)O)C(=O)NCC(=O)N[C@@H](C)C(=O)NCC(=O)N[C@@H](C)C(=O)N[C@@H](CCC(=O)O)C(=O)N[C@H](C(=O)N[C@@H](CCCCN)C(=O)N[C@@H](CCCNC(=N)N)C(=O)N[C@@H](C)C(=O)N[C@@H](CO)C(=O)N[C@@H](C)C(=O)N[C@@H](CCC(=O)O)C(=O)N[C@@H](C)C(=O)N[C@@H](CCCCN)C(=O)N[C@@H](CCC(N)=O)C(=O)N[C@@H](C)C(=O)N[C@@H](Cc1ccccc1)C(=O)O)C(C)C)[C@@H](C)O [RNS peptide, reference compound] (Myristoyl-GTAPAAEGAGAEVKRASAEAKQAF-OH; C-terminus assumed)
NHBE cells
  Lactate dehydrogenase release: neither the MANS nor the RNS peptide affected
  [3H]deoxyglucose uptake: neither the MANS nor the RNS peptide affected
Human neutrophils; [2]
  Absorbance at 450 nm (MPO secretion): 0.099
Human neutrophils; [3]
  Absorbance at 450 nm (MPO secretion): 0.100
Human neutrophils; [4]
  Absorbance at 450 nm (MPO secretion): 0.100

## C[C@@](O)(/C=C/[C@H]1CC=CC(=O)O1)[C@@H](C[C@@H](O)\C=C/C=C\C=C\CO)OP(=O)(O)O [fostriecin]
MARCKS; 1-500 nM, with PMA 100 nM + 8-Br-cGMP 1 μM
  Effect on PKG-induced MARCKS dephosphorylation: inhibited PKG-induced MARCKS dephosphorylation in a concentration-dependent manner
MARCKS; [5]
  MARCKS phosphorylation (band in immunoprecipitation assay): strong band
MARCKS; inhibitor alone, concentration not stated (I-5C lane 9)
  MARCKS phosphorylation (band in immunoprecipitation assay): only a trace amount

## C=C1[C@@H](O)[C@@H]2O[C@]3(CC[C@H](/C=C/[C@@H](C)[C@@H]4CC(C)=C[C@@]5(O[C@H](C[C@@](C)(O)C(=O)O)CC[C@H]5O)O4)O3)CC[C@H]2O[C@@H]1[C@@H](O)C[C@H](C)[C@H]1O[C@@]2(CCCCO2)CC[C@H]1C [okadaic acid]
MARCKS; 500 nM (Example 6)
  Effect on reversal of MARCKS phosphorylation by 8-Br-cGMP (10 μM): inhibited this effect
MARCKS; inhibitor 500 nM + 100 nM PMA
  MARCKS phosphorylation (band in immunoprecipitation assay): dark band
MARCKS; [5]
  MARCKS phosphorylation (band in immunoprecipitation assay): dark band
MARCKS; inhibitor 500 nM + 100 nM PMA + 1 μM 8-Br-cGMP, listed as Okadaic acid
  MARCKS phosphorylation (band in immunoprecipitation assay): showed a band
MARCKS; inhibitor 500 nM + 100 nM PMA, listed as Okadaic acid
  MARCKS phosphorylation (band in immunoprecipitation assay): showed a band
MARCKS; inhibitor 500 nM + 1 μM 8-Br-cGMP
  MARCKS phosphorylation (band in immunoprecipitation assay): medium dark band
MARCKS; inhibitor 500 nM + 1 μM 8-Br-cGMP, listed as Okadaic acid
  MARCKS phosphorylation (band in immunoprecipitation assay): faint band
MARCKS; inhibitor 500 nM alone
  MARCKS phosphorylation (band in immunoprecipitation assay): faint band
